Test results taken from patent US20070105875A1, “Fungicidal mixtures” (priority 2004, published 2007).

Test system: Corticium sasakii (syn. Rhizoctonia solani)
Experiment: Activity against sheath blight on rice caused by Corticium sasakii (protective spray test on potted rice plants)
Type: in vivo
Conditions: individual active compound, rice cultivar Tai-Nong 67, evaluation after 11 days, untreated control 90% infection
Procedure: The active compounds, separately or jointly, were prepared as a stock solution with 0.25% by weight of active compound in acetone or DMSO. 1% by weight of the emulsifier Uniperol® EL (wetting agent having emulsifying and dispersing action based on ethoxylated alkylphenols) was added to this solution, and the solution was diluted with water to the desired concentration.
Activity Against Sheath Blight on Rice Caused by Corticium sasakii (syn. Rhizoctonia solani)
Pots of rice plants of the cultivar “Tai-Nong 67” were sprayed to runoff point with an aqeuous suspension having the concentration of active compound stated below. The next day, oat grains infected with Corticium sasakii were placed into the pots (in each case 5 grains per pot). The plants were then placed in a chamber at 26° C. and maximum atmospheric humidity. After 11 days, the sheath blight on the untreated but infected control plants had developed to such an extent that the infection could be determined visually in %.
Evaluation is carried out by determining the infected leaf areas in percent. These percentages were converted into efficacies.
The efficacy (E) is calculated as follows using Abbot's formula: E=(1−α/β)·100 α corresponds to the fungicidal infection of the treated plants in % and β corresponds to the fungicidal infection of the untreated (control) plants in %
An efficacy of 0 means that the infection level of the treated plants corresponds to that of the untreated control plants; an efficacy of 100 means that the treated plants are not infected.
The expected efficacies of the mixtures of active compounds are determined using Colby's formula [R. S. Colby, Weeds 15, 20-22 (1967)] and compared with the observed efficacies.
Colby's Formula: E=x+y−x·y/100 • E expected efficacy, expressed in % of the untreated control, when using the mixture of the active compounds A and B at the concentrations a and b • x efficacy, expressed in % of the untreated control, when using active compound A at the concentration a • y efficacy, expressed in % of the untreated control, when using active compound B at the concentration b

CC1CCN(c2c(-c3c(F)cccc3Cl)c(Cl)nc3ncnn23)CC1 [A]
Efficacy in % of the untreated control (1 ppm in the spray liquor): 0%

C[C@H](Nc1c(-c2c(F)cc(F)cc2F)c(Cl)nc2ncnn12)C(F)(F)F [B]
Efficacy in % of the untreated control (1 ppm in the spray liquor): 0%

CC1CCN(c2c(-c3c(F)cc(F)cc3F)c(Cl)nc3ncnn23)CC1 [I, 5-chloro-7-(4-methylpiperidin-1-yl)-6-(2,4,6-trifluorophenyl)-[1,2,4]triazolo[1,5-a]pyrimidine]
Efficacy in % of the untreated control (1 ppm in the spray liquor): 33%

CO/N=C(/C(=O)OC)c1ccccc1COc1ccccc1C [II (kresoxim-methyl), methyl methoxyimino-(2-o-tolyloxymethylphenyl)acetate]
Efficacy in % of the untreated control (1 ppm in the spray liquor): 0%
Efficacy in % of the untreated control (4 ppm in the spray liquor): 0%
